Data taken from patent EP0540969B1, “Derivatives of structurally modified VIP and pharmaceutical compositions containing them” (YEDA RESEARCH AND DEVELOPMENT CO. LTD., priority 1991, dated 1998).

Key:
castrated rats = assay: Biological tests for penile reflexes (latency and number of E2 and cups) after transdermal application; assay type: in vivo; settings: ointment with Sefsol 318 carrier; for Number of E2: during the test period (Fig. 1C); for Number of Cups: during the test period (Fig. 1D)
Method: The following ointment compositions were prepared and tested for transdermal application of lipophilic conjugated modified VIP derivatives in accordance with the present invention. Similar conjugates of unmodified VIP derivatives were tested for comparison. • 1. Ointment containing glycerine as a carrier: The ointment was prepared as follows: 2 g glycerine + 10 mg stearoyl-VIP + 7 drops of DMSO (dimethylsulfoxide). Each rat received 30-50 µg of stearoyl-VIP in about 10 µl ointment. (GLY in Figure 1). • 2. Ointment containing a lubricant as a carrier: The ointment was prepared as above, only glycerine was replaced by lubricant (K-Y Lubricating Jelly, Johnson & Johnson, containing propylene glycol and glycerine), 7 drops of DMSO equals about 130 µl. (LUB in Figure 1). • 3. Ointment containing a lubricant and nitroglycerine as a carrier: Prepared as in (2) above with 1.7 ml nitroglycerine (1 mg/ml), (LUB-NTG in Figure 1). • 4. Ointment containing Sefsol 318™ (12) as a carrier: The ointment composition was: 31.2 µl 10% Sefsol 318™ (glyceryl monocaprylate), 0.24 mg stearoyl-VIP in 31.2 µl DMSO (1-2µl per animal) (SEFS in Figure 1) or 0.24 mg stearoyl -Nle^17-VIP in 31.2µl DMSO (SEFS in Fig. 1).
The biological tests involved measurements of penile reflexes in castrated rats following transdermal application of modified and native VIP conjugates. […] In a further set of experiments the effects of stearoyl-VIP compounded with Sefsol 318™ were compared with those of stearoyl -Nle^17-VIP compounded with Sefsol 318™.
Rats with reduced sexual potential due to castration were employed. Male rats (250-300 g, about three month old) were kept in a 12-hours light, 12-hours dark cycle. Experiments were always conducted within the dark period, 2-6 hours after the onset of darkness. Male rats were castrated and given partial testosterone replacement (4 µg/100 g body weight) in the form of daily injection for 14-21 consecutive days (the duration of the experiment). Experiments were conducted one week following surgery.
A procedure was utilized that employed the technique that measures sexual reflexes in the penis, which enables direct evaluation of penile erection following transdermal administration of the drug. Successful reproduction depends, in large part, upon the precise execution of temporally organized, functionally related behavioural units. In these experiments, we concentrated on the final stages of the erection process (reddening of the penis accompanied by its distension and extension leading to complete erection) and monitored the latency time to the first E2 and first cup (13).
For testing, each animal was restrained in a supine position with the anterior portion of its body enclosed in a loosely fitting cylinder (7 cm diam). After a belt was secured around the torso, the glans penis was extruded from its sheath and gently held perpendicular to the abdomen by a thin wooden applicator positioned at the posterior of the penis. The legs of the male were held by the observer and this position was maintained throughout the test period. The duration of the session was 45 minutes. The latencies and numbers of E2 and cups were recorded and plotted.
An E2 is defined as a complete erection which can be followed by cup in which the penile tip is turned into a cup-like structure, whereby the glands flare out such that the penis is wider in its distal portion than its base. This final stage requires E2 and is probably a pre-requisite for ejaculation (13). Using all the parameters one can obtain a reliable measure of the sexual activity of the tested rat.
Six to ten animals were tested in this paradigm for each variable. Control animals received ointment compositions without St-VIP or St-Nle^17-VIP.

[1] = Skin penetration and body distribution of 125I-labelled VIP derivatives after transdermal application in Sefsol 318; assay type: in vivo
Description: These experiments were divided into two groups. In the first group of experiments we performed a time course of the distribution of radioactively labelled stearoyl-Nle^17-VIP (in Sefsol 318™), applied transdermally, in various organs of the body. In the second group of experiments we compared the penetration of four radioactively labelled VIP derivatives with Sefsol 318™ following transdermal application. Two to four animals were used for each data point. The derivatives were labelled with ^125I using the chloramine-T based method (14).
In the first group of experiments, stearoyl-Nle^17-VIP was radioactively labelled with ^125I. Each animal received 2.2 million CPM, in 6µl of the radioactive material+ 26µl ointment (ointment No. 4 in Example 5). Two animals were used for each time point in two independent experiments. To avoid oral absorbance, the animal mouth was sealed. At indicated times following topical application, animals were sacrificed and duplicate tissue samples were removed, weighed and counted in a gamma counter. Tissues measured were: lungs (LU), heart (HE), kidneys (KI), liver (LI) and intestine (IN).
In the second group of experiments compositions of Sefsol 318™ and VIP, St-VIP, Nle^17-VIP and St-Nle^17-VIP were prepared. The experiments were performed as in Figure 2 with the only difference that each animal received a 2.4 million CPM. 2-4 animals were utilized for each variable. Animals were sacrificed 30 minutes after the application of the drug.

rat [2] = assay: Acute toxicology studies; assay type: in vivo; settings: for gross side effects / mortality: dose of 7 mg/rat
Method: (§1) To assess the degree of toxicity and possible side effects of stearoyl-Nle^17-VIP, two types of studies were performed: 1. acute toxicology studies; 2. repeated dose toxicity studies.
(§2) The drug was prepared essentially as follows: 539 mg stearoyl-Nle^17-VIP+2.31 ml 10% Sefsol+2.31 ml 40% isopropanol. The experimental animal was the rat (160-300 g body weight).
(§3) In the acute toxicology studies, three routes of administration were chosen: 1. subcutaneous; 2. intravenous; 3. oral.

rat [3] = assay: Repeated dose toxicity studies, daily topical application; assay type: in vivo; settings: daily topical application (to the sex organ), dose of 3.5 mg/animal
Method: as §1, §2, §3

[4] = Stability compared with the unmodified conjugate; assay type: physicochemical; settings: compared with stearoyl-VIP in which the amino acid sequence was not altered

| Molecule | Latency to first E2 (castrated rats; 45 min session (Fig. 1A)) | Latency to first cup (castrated rats; 45 min session (Fig. 1B)) | Number of E2 (castrated rats) | Number of Cups (castrated rats) | tissue concentrations compared among VIP, St-VIP, Nle^17-VIP and St-Nle^17-VIP ([1]; in Sefsol 318, animals sacrificed 30 minutes after application (Fig. 3)) | peak deliveries (time after administration) ([1]; in Sefsol 318, topical, lungs, heart, kidneys, liver, intestine (Fig. 2)) | disappearance (time after administration) ([1]; in Sefsol 318, topical, tissue samples (Fig. 2)) | LD50 (rat [2]; intravenous injection) | gross side effects (rat [2]; oral administration) | mortality (rat [2]; oral administration) | gross side effects (rat [2]; subcutaneous administration) | mortality (rat [2]; subcutaneous administration) | mortality (rat [3]) | side effects (rat [3]) | stability relative to stearoyl-VIP [4] |
| --- | --- | --- | --- | --- | --- | --- | --- | --- | --- | --- | --- | --- | --- | --- | --- |
| stearoyl -norleucine^17-VIP [St-Nle^17-VIP] | about 1 minute | 10 min | 34 | 20 | highest concentrations | 15 to 60 min | 2.5 h | 7 mg/rat | no gross side effects | no mortality | no gross side effects | no mortality | no mortality | nor any side effects | more stable |
| CCCCCCCCCCCCCCCCCC(=O)N[C@@H](Cc1c[nH]cn1)C(=O)N[C@@H](CO)C(=O)N[C@@H](CC(=O)O)C(=O)N[C@@H](C)C(=O)N[C@H](C(=O)N[C@@H](Cc1ccccc1)C(=O)N[C@H](C(=O)N[C@@H](CC(=O)O)C(=O)N[C@@H](CC(N)=O)C(=O)N[C@@H](Cc1ccc(O)cc1)C(=O)N[C@H](C(=O)N[C@@H](CCCNC(=N)N)C(=O)N[C@@H](CC(C)C)C(=O)N[C@@H](CCCNC(=N)N)C(=O)N[C@@H](CCCCN)C(=O)N[C@@H](CCC(N)=O)C(=O)N[C@@H](CCSC)C(=O)N[C@@H](C)C(=O)N[C@H](C(=O)N[C@@H](CCCCN)C(=O)N[C@@H](CCCCN)C(=O)N[C@@H](Cc1ccc(O)cc1)C(=O)N[C@@H](CC(C)C)C(=O)N[C@@H](CC(N)=O)C(=O)N[C@@H](CO)C(=O)N[C@H](C(=O)N[C@@H](CC(C)C)C(=O)N[C@@H](CC(N)=O)C(N)=O)[C@@H](C)CC)C(C)C)[C@@H](C)O)[C@@H](C)O)C(C)C [St-VIP, stearoyl-VIP, reference compound] |  |  | 24 | 12 |  |  |  |  |  |  |  |  |  |  |  |
